Assay results published in PMC4821856, “Novel Anti-Campylobacter Compounds Identified Using High Throughput Screening of a Pre-selected Enriched Small Molecules Library” (Frontiers in Microbiology, 2016).

What was measured:
C. jejuni 81–176 = assay: Single step resistance assay at lethal dose (5X MIC) on solid media; type: cell-based, Campylobacter jejuni; settings: solid MH agar with 5X MIC, 5 days, 42°C; resistant colonies observed yes/no
Experimental: Single step and sequential passage resistance assays were performed as described previously with a few modifications (Ling et al., [2015]; Xu et al., [2015]). The top 12 hit compounds were tested in this experiment. The MIC values for each of these 12 compound as determined in above assay was used for C. jejuni resistance studies using lethal (5X MIC) and sub-lethal (0.5X MIC) concentrations.
Campylobacter jejuni grown in MH medium overnight at 42°C was centrifuged at 4700 × g for 10 min at room temperature. The supernatant was discarded and the bacteria were resuspended in MH broth to an OD600 of 1.0 (~1 × 10^9 CFU). Compounds (5X MIC) were mixed with 5 ml of molten MH agar medium and transferred immediately onto small 35 mm petri-plates, agar in the plate was allowed to solidify in the dark. Ten micro liter of culture was transferred to the small molecule containing plates and spread using sterile beads, plates were incubated at 42°C for 5 days in the dark. Bacteria spread on MH agar with 50 μg/mL kanamycin or MH agar alone, were used as positive and negative controls, respectively. After 5 days of incubation, any colonies that developed were assessed for resistance to the test compounds by determining MIC and the MBC as noted above.
Our rationale for performing the resistance studies was to determine the ability of C. jejuni strain to develop resistance to these compounds when cultured on solid media with a lethal dose (5X MIC) or in liquid media with a sub-lethal dose (0.5X MIC). The presence of resistant colonies in any of these assays would reduce the attractiveness of the relevant small molecule while an absence of resistant colonies would indicate a likely inability of C. jejuni to develop resistance in general. […] Since C. jejuni is the major cause of human campylobacteriosis (95% of the cases); (Butzler, [2004]) and due to limitation of compounds availability, we only performed resistance studies on C. jejuni 81–176. However, for future commercial application of these antimicrobials, more in-depth characterization of potential resistance by other C. jejuni strains and C. coli is warranted.

Hemolytic activity = type: cell-based; settings: 10% sheep RBCs, 37°C
Experimental: The hemolytic activity of the top-12 compounds were determined as previously described (Strom et al., [2003]; Selin et al., [2015]). Briefly, 500 μL of sheep red blood cells (LAMPIRE Biological Laboratories, Pipersville, PA) were washed three times in PBS and resuspended in 5 mL of PBS to prepare a working concentration of 10% RBCs. Two hundred micro liter of the 10% RBCs suspension was incubated with 200 μM concentrations of compounds for 1 h at 37°C in a 96 well plate. After incubation, the plate was centrifuged (4000 rpm, 5 min) and placed on ice for few min. Supernatants from each well was transferred to a fresh 96 well plate and OD of 540 nm was measured. The PBS and 0.1% Triton X-100 were used as negative and positive controls, respectively. A range of 1–10% DMSO was also used as a control. A percent hemolysis was calculated using the following formula:
% Hemolysis=(OD of compound−OD of DMSO/ OD of Triton-X100)×100
Two independent experiments in triplicate were performed and results were expressed as the % average hemolysis.

[1] = test system: C. jejuni 81-176 in Caco-2 cells; assay: Intracellular survival / in vitro clearance of C. jejuni in infected Caco-2 cells; type: cell-based, Campylobacter jejuni; settings: for minimal effective concentration: Campylobacter jejuni, C. jejuni 81–176 infected Caco-2 cells, compounds at 200, 100, 50, 25 μM for 24 h, read-out: In vitro Concentration (in vitro clearance ability); for Intracellular Campylobacter load (below detection limit): 50 μM, 24 h
Experimental: To test the effect of selected compounds on C. jejuni in vitro clearance, Caco-2 cells were infected with C. jejuni 81-176 strain and a 96 well intracellular survival assay was performed as described previously (Malde et al., [2014]; Pina-Mimbela et al., [2015]). Briefly, a mid-log phase C. jejuni 81–176 culture was pelleted by centrifuging at 9500 × g for 10 min and washed three times with Dulbecco Phosphate Buffer Saline (DPBS, Gibco) containing 1% (v/v) FBS and adjusted to the desired OD600. Approximately 1.4 × 10^5 Caco-2 cells/well were seeded in 100 μL of media containing varying concentration of compounds into each well of a 96 well plate and subsequently infected with C. jejuni at multiplicity of infection (MOI) 100 in duplicate wells. To determine clearance, Caco-2 cells were incubated with bacteria for 3 h and treated with gentamicin (150 μg/mL) and incubated for additional 2 h. Cells were washed three times with DPBS with no calcium or magnesium and incubated with 1 μL of diluted compounds (200, 100, 50, and 25 μM) for 24 h. Infected cells were washed twice with MEM, lysed with 0.1% (v/v) Triton-X 100. Subsequently, 100 μL of an aliquot from each well was 10-fold serially diluted in MEM and plated on MH agar in duplicate to determine CFUs. The appropriate controls included; (i) infected Caco-2 cell treated with kanamycin or chloramphenicol, (ii) infected Caco-2 cells treated with 1 μL of 100% Trition-X, (iii) infected Caco-2 treated with 1 μL of 100% DMSO. Two independent experiments were carried with duplicate treatments in each experiment and the average CFU value was used to plot the graph.
The in vitro clearance ability and cytotoxicity of compounds were analyzed using one-way analysis of variance with mean separation by a least significant difference test at 5% level of significance in GraphPad Prism version 6 software.

[2] = sheep red blood cells (10% suspension)

SMILES	Resistance, single step 5X MIC (C. jejuni 81–176)	hemolysis at 1 h, 200 µM (Hemolytic activity; [2])	minimal effective concentration [1]	hemolysis at 1 h, 200 µM (Hemolytic activity)	Intracellular Campylobacter clearing ability ([1]; 25 μM (eight-fold dilution))	Intracellular Campylobacter load (below detection limit) [1]	Intracellular C. jejuni clearance (in vitro effect) ([1]; infected Caco-2 cells, overall)
O=S(=O)(Nc1cccc(C(F)(F)F)c1)c1ccc(Br)cc1 [Comp 1]	No	7.4%	200 µM	–	–	–	–
COc1ccc(CN2CCN(c3ccc(F)cc3)CC2)cc1C [Comp 2]	No	–	–	0%	–	–	–
CN(C)c1ccc(CN2CCN(c3ccccc3Cl)CC2)cc1 [Comp 3]	No	–	–	0%	–	–	–
Clc1ccc(N2CCN(Cc3ccsc3)CC2)cc1 [Comp 4]	No	0%	> 200 µM	–	–	–	–
Cc1ccc(N2CCN(C/C=C/c3ccccc3)CC2)cc1 [Comp 5]	No	0%	> 200 µM	–	–	–	–
O=c1c(Cl)c(Cl)cnn1-c1ccccc1Cl [Comp 7]	No	0%	25 µM	–	complete intracellular Campylobacter clearing ability	≤ 10 bacteria/mL	–
Cc1c(C(C)NCc2cccc(OC3CCCC3)c2)cnn1-c1ccccc1 (centres unmarked) [Comp 10]	No	0%	50 µM	–	–	≤ 10 bacteria/mL	–
COc1ccc(CNCc2ccc(Cl)s2)cc1OCC(O)CN1CCCC1 (centres unmarked) [Comp 12]	No	0%	100 µM	–	–	–	–
CN(Cc1cccc2cnccc12)CC1CCCN(CCc2ccc(F)cc2)C1 (centres unmarked) [Comp 13]	No	0%	> 200 µM	–	–	–	lacked in vitro effect
CN(CC(O)COc1ccccc1CNC1(c2ccccc2)CC1)C1CCCCC1 (centres unmarked) [Comp 17]	No	0%	> 200 µM	–	–	–	–
CN(Cc1ccccc1)CC1CCCN(CCc2ccc(F)cc2)C1 (centres unmarked) [Comp 18]	No	0%	100 µM	–	–	–	–
CC(=O)Nc1ccc(CN(C)CC2CCCN(CCc3cccc(C(F)(F)F)c3)C2)cc1 (centres unmarked) [Comp 22]	No	0%	100 µM	–	–	–	–
